Reference: PubChem BioAssay AID1159564 (GlaxoSmithKline (GSK), 2015)
pIC50: −log10 of the molar value. Calls of active or inactive are those of the source. No rule for the calls is given here.

System: L. donovani-infected THP-1 macrophages, intracellular amastigote imaging
Assay: antileishmanial activity in infected THP-1 macrophages – imaging, THP-1 host macrophages, host toxicity (AID 1159564)
[1] = measured here: THP-1 host cell toxicity
[2] = measured here: amastigotes per macrophage

Row | Structure (SMILES) | pIC50 | pIC50 [1] | pIC50 [2] | IC50
1 | O=C(Nc1nc(-c2ccccn2)cs1)C1CCc2ccccc2C1 (stereo unspecified) | 6.20 | 5.10 | 6.40 | –
2 | Cc1ccccc1NS(=O)(=O)c1ccc2[nH]cc(C(=O)NC3CCCC(C)C3C)c(=O)c2c1 (stereo unspecified) | 4.80 | 4.89 | 4.80 | –
3 | CNc1cc(Cn2c(C(=O)c3cc(C)cc(Cl)c3)c(C(C)C)c(=O)[nH]c2=O)ccn1 | 4.70 | < 4.30 | 4.89 | –
4 | Cc1cc(NC(=O)C2CC2)ccc1OC1CCN(Cc2ccco2)CC1 | 4.70 | 4.89 | 4.89 | –
5 | COc1ccnc2[nH]cc(-c3cc(C(=O)N[C@H](CO)c4ccccc4)co3)c12 | 5.10 | 6.10 | 5.70 | –
6 | COc1ccccc1-c1c(C)[nH]c2nc(N)nc(C)c12 | 4.60 | < 4.30 | 4.80 | –
7 | O=C(c1ccc(O)c(Cl)c1)N1CCN(c2cnccn2)CC1 | 5.30 | < 4.30 | 5.49 | –
8 | CCCc1cc(N)nc(-c2cc(CCC)cc(N)n2)c1 | 5.60 | 4.70 | 5.80 | –
9 | O=C(Cc1ccccc1)Nc1ccccc1C(=O)Nc1nccs1 | – | < 4.30 | < 4.30 | > 50 µM (inactive)
10 | CCCc1cc(C(=O)Nc2ncc(-c3cccc(Br)c3)n2C)n[nH]1 | 5.30 | 4.49 | 5.40 | –
11 | COc1ccc(S(=O)(=O)NC(C)C)cc1Nc1ncc(-c2cccc(F)c2)cn1 | – | < 4.30 | < 4.30 | > 50 µM (inactive)
12 | COC(=O)c1ccc(-c2cnc3ccc(NCc4ccccn4)nn23)cc1 | – | 4.89 | 4.80 | > 50 µM (inactive)
13 | CNS(=O)(=O)c1ccccc1Nc1nc(Nc2ccnn2C)ncc1Cl | 6.20 | 6.49 | 6.40 | –
14 | Cc1ccc(Nc2nc(N)nc(CNC(c3nc4ccccc4[nH]3)C(C)C)n2)cc1 (stereo unspecified) | 5.70 | 4.60 | 5.89 | –
15 | Cn1ccnc1-c1nc(NCc2ccccc2Cl)cc(C2CC2)n1 | 6.20 | 5.10 | 6.70 | –
16 | Cc1nc2c(-c3n[nH]c(-c4ccccc4N)n3)cccn2c1C | 5.80 | 5.10 | 6.00 | –
17 | Cc1nn(-c2nc3ccccc3s2)c2c1C(c1ccc(OCC(N)=O)cc1)SCC(=O)N2 (stereo unspecified) | – | < 4.30 | < 4.30 | > 50 µM (inactive)
18 | Cc1cc(N(C)C)nc(Nc2ccccc2C)n1 | 4.49 | 4.40 | 4.80 | –
19 | O=C(NCCc1csc(-c2ccc(F)cc2)n1)c1cccs1 | – | < 4.30 | 4.70 | > 50 µM (inactive)
20 | Cc1ncsc1CNc1cnc(-c2ccc3c(c2)OCCO3)c(-c2cnn(C)c2)c1 | 4.80 | 4.80 | 4.89 | –
21 | C[C@@H](Oc1cc(-n2cnc3ccc(CC(O)CO)cc32)sc1C(N)=O)c1ccccc1Cl (stereo partly specified) | 4.40 | 4.40 | 4.49 | –
22 | O=C(Nc1ccc(C(F)(F)F)cc1)NC1(C(=O)NCc2ccco2)CCCCC1 | – | 4.49 | < 4.30 | > 50 µM (inactive)
23 | O=c1ccc2ccc(F)c3c2n1C[C@H]3CN1CCC(NCc2cc3ccccc3o2)CC1 | 4.70 | 4.49 | 4.89 | –
24 | CCC1Oc2cc(S(=O)(=O)N(C)CC(=O)N3CCc4ccccc4C3)c(C)cc2NC1=O (stereo unspecified) | – | < 4.30 | 4.49 | > 50 µM (inactive)
25 | CCOC(=O)c1noc(N)c1-c1ccccc1 | – | < 4.30 | < 4.30 | > 50 µM (inactive)

Row | Structure (SMILES) | pIC50 | pIC50 [1] | pIC50 [2] | IC50
26 | COc1ccc(-c2ccc3nnc(-c4ccc(O)c(OC)c4)n3c2)cn1 | – | < 4.30 | < 4.30 | > 50 µM (inactive)
27 | C=CCOCC1Cn2nc([N+](=O)[O-])nc2O1 (stereo unspecified) | – | < 4.30 | < 4.30 | > 50 µM (inactive)
28 | COc1cc(NC(=O)Nc2cccc(CNC(=O)OC3CCCCC3)c2)ccc1-c1cnco1 | – | 5.00 | 4.70 | > 50 µM (inactive)
29 | COc1ccc(Nc2nc(NC3CCC(O)CC3)ncc2Br)c(C(N)=O)c1 (stereo unspecified) | 6.00 | 6.40 | 6.20 | –
30 | Cc1cc(Nc2cc(C3CC3)[nH]n2)nc(N2CCCC2)n1 | 6.80 | 6.89 | 7.30 | –
31 | CC(C)S(=O)(=O)c1ccc(-c2cnc(N)c3cc(-c4ccnc(N)n4)ccc23)cc1 | 5.89 | 5.60 | 6.30 | –
32 | CC(C)(C)C(=O)NCCc1csc(-c2ccc(F)cc2)n1 | – | < 4.30 | < 4.30 | > 50 µM (inactive)
33 | COc1ccc(C(=O)[C@H]2C[C@@H]2CN(Cc2ccccn2)Cc2ccccn2)cc1 | 5.80 | < 4.30 | 5.89 | –
34 | O=C(c1cnn(-c2ccccc2)n1)N1CCCC(n2ccnc2)C1 (stereo unspecified) | – | < 4.30 | 6.20 | > 50 µM (inactive)
35 | Cc1ccc2nc(N(Cc3cccnc3)C(=O)CCc3ccccc3)sc2c1 | – | < 4.30 | < 4.30 | > 50 µM (inactive)
36 | COc1ccc(NS(=O)(=O)c2cc(NC(=O)Cc3ccc(C)cc3)ccc2N2CCOCC2)cc1 | – | < 4.30 | < 4.30 | > 50 µM (inactive)
37 | COc1ccc(OC)c(NC(=O)c2ccc([N+](=O)[O-])o2)c1 | 4.49 | 4.70 | 4.80 | –
38 | COc1ccc2nccc([C@H](O)CN3CC[C@H](NC(=O)c4ccc(Br)cc4)[C@@H](O)C3)c2n1 | – | < 4.30 | < 4.30 | > 50 µM (inactive)
39 | Cn1nc(C(=O)N2CCc3ccccc32)c2c1CCS(=O)(=O)C2 | 5.40 | < 4.30 | 5.80 | –
40 | O=C(CN(Cc1ccccn1)Cc1ccccn1)NCc1csc(-c2cccs2)n1 | 5.20 | < 4.30 | 5.49 | –
41 | Cn1c(CN2CCN(c3ncc(C(F)(F)F)cc3Cl)CC2)nc2ccncc21 | – | 5.20 | – | > 50 µM (inactive)
42 | CCC(CC)C(=O)Nc1ccc(-c2nnc(-c3ccc(OC)cc3)o2)cc1 | – | < 4.30 | < 4.30 | > 50 µM (inactive)
43 | O=C(NCc1nnc2n1CCCCC2)c1csc(-c2ccccc2)n1 | – | < 4.30 | < 4.30 | > 50 µM (inactive)
44 | CNc1nc(C)nc(N2CCc3cc(C(=O)NCc4ccc(-c5ccn[nH]5)cc4Cl)ccc32)n1 | 6.49 | < 4.30 | 6.40 | –
45 | O=[N+]([O-])c1ccc(-c2nnn(-c3ccc(Cl)cc3)n2)o1 | – | < 4.30 | < 4.30 | > 50 µM (inactive)
46 | COc1ccc2ncc(F)c(NC(=O)C3(O)CCC(NCc4ccc5c(c4)OCCO5)CC3)c2n1 (stereo unspecified) | 4.49 | 4.70 | 4.80 | –
47 | CN(CC1CCCO1)S(=O)(=O)c1ccc(C(=O)Nc2nc(-c3ccccn3)cs2)cc1 (stereo unspecified) | 5.20 | 5.10 | 5.49 | –
48 | CCC(=O)N1N=C(c2ccc3c(c2)CCCC3)Sc2c1ncn2C(=O)CC | 5.49 | < 4.30 | 5.60 | –
49 | Cc1cc(Br)cc(C(=O)c2c(C(C)C)c(=O)[nH]c(=O)n2Cc2ccnc(N)c2)c1 | 4.49 | 4.40 | 4.70 | –
